From EP3575287A1, “INHIBITORS OF N-ACYLPHOSPHATIDYLETHANOLAMINE PHOSPHOLIPASE D (NAPE-PLD)” (Universiteit Leiden, priority 2018, dated 2019)

biological target: T1, human NAPE-PLD (Homo sapiens, UniProt Q6IQ20); assay: In vitro NAPE-PLD activity assay; type: biochemical; conditions: membrane protein fraction of HEK293T cells overexpressing human NAPE-PLD; substrate PED6 1 µM; 30 minutes preincubation at 37 °C
T1 construct: Full length human cDNA NAPE-PLD was obtained from Natsuo Ueda; made in house; host or cells: HEK293T cells, transient transfection (pcDNA3.1); membrane fraction used
T1 sequence (Q6IQ20 whole entry): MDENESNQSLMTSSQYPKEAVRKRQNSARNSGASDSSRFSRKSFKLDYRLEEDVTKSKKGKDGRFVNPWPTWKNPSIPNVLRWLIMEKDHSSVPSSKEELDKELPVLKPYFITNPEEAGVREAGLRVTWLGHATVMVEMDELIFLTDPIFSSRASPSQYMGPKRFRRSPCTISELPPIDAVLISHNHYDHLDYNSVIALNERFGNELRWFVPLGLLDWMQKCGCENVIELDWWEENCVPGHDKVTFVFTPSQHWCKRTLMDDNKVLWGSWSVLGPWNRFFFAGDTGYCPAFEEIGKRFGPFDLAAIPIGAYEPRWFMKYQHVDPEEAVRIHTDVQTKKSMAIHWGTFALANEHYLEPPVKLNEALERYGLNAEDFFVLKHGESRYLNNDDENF
Description: Full length human cDNA NAPE-PLD was obtained from Natsuo Ueda^1 and cloned into mammalian expression vector pcDNA3.1, containing a C-terminal Flag-tag and genes for ampicillin and neomycin resistance. All plasmids were grown in XL-10 Z-competent cells and prepped (Maxi Prep, Qiagen). Sequence analysis for the confirmation of the sequences was performed at the Leiden Genome Technology Centre.
HEK293T were cultured at 37 °C and 7% CO2 in DMEM (Sigma Aldrich, D6546) with glutamax, penicillin (100 µg/ml), streptomycin (100 µg/ml) and 10% New Born Calf Serum iron supplemented (Hyclone SH30072.03). Cells were passaged twice a week to appropriate confluence.
24 hours before transfection 10^7 cells are seeded on a 15 cm dish. Two hours before transfection medium is refreshed, low volume. Transfection is performed with PEI in a ratio of 3:1 with human NAPE-PLD or Mock pcDNA3.1 Neo, 20 µg per dish. Medium is refreshed after 24 hours and cells are harvested after 72 hours.
Cell pellets are re-suspended in lysis buffer: 20 mM Hepes, 2 mM DTT, 0.25 M sucrose, 1 mM MgCl2, 2.5 U/ml benzonase and incubated 30 minutes on ice. The cytosolic fraction (supernatant) is separated from the membranes by ultra-centrifugation (32000 rpm for 30 minutes 100,000g). The pellet is resuspended in storage buffer: 20 mM Hepes, 2 mM DTT (membrane fraction). All samples are stored at -80°C. Enzyme concentrations are determined using a Bradford assay.
The NAPE-PLD activity assay is based on a previously reported method with small alterations.^2 The membrane protein fraction from transient overexpression of human NAPE-PLD in HEK293T cells was diluted to 0.4 mg/ml in assay buffer: 50 mM Tris-HCl (pH 7.5), 0.02% Triton X-100, 150 mM NaCl. The substrate PED6 (Invitrogen) 1 mM stock was consecutively diluted in DMSO (10x) and in assay buffer (10x) to make a 10 µM working solution. […] The assay is performed in a dark Greiner 96 wells plate, end volume 100 µl. The compound or DMSO is incubated with membrane protein lysate (final concentration 0.04 mg/ml) for 30 minutes at 37 °C. […] Mock lysate with DMSO is used for background substraction. IC50 curves are generated used Graphpad Prism v6.

Question: `CN(CCc1ccccc1)c1nc(C(=O)NCC2CC2)cc(N2CCNCC2)n1` [Example 11, N-(cyclopropylmethyl)-2-(methyl(phenethyl)amino)-6-(piperazin-1-yl)pyrimidine-4-carboxamide] was tested. Which IC50 did it give?
Answer: 5370 nM

Question: With `O=C(NCC1CC1)c1cc(N2CCOCC2)nc(N(CCc2ccccc2)C2CC2)n1` [Example 70, 2-(cyclopropyl(phenethyl)amino)-N-(cyclopropylmethyl)-6-morpholinopyrimidine-4-carboxamide] as the compound, how does the IC50 read?
Answer: 1100 nM

Question: For `CN(CCc1ccccc1)c1nc(C(=O)NCC2CC2)cc(-n2ccnc2)n1` [Example 23, N-(cyclopropylmethyl)-6-(1H-imidazol-1-yl)-2-(methyl(phenethyl)amino)pyrimidine-4-carboxamide], which IC50 is on record?
Answer: 2240 nM

Question: For `O=C(NCC1CC1)c1cc(N2CCOCC2)nc(N2CCC(c3ccccc3)C2)n1` (centres unmarked) [Example 51, N-(cyclopropylmethyl)-6-morphol ino-2-(3-phenylpyrrolidin-1-yl)pyrimidine-4-carboxamide], which IC50 is on record?
Answer: 2190 nM

Question: With `CC(C)CNC(=O)c1cc(N2CCOCC2)nc(N(C)CCc2ccccc2)n1` [Example 6, N-isobutyl-2-(methyl(phenethyl)amino)-6-morpholinopyrimidine-4-carboxamide] as the compound, how does the IC50 read?
Answer: 7080 nM

Question: `O=C(NCC1CC1)c1cc(N2CCOCC2)nc(N2CCOC(c3ccccc3)C2)n1` (centres unmarked) [Example 37, N-(cyclopropylmethyl)-6-morpholino-2-(2-phenylmorpholino)pyrimidine-4-carboxamide] was tested. Which IC50 did it give?
Answer: 1230 nM

Question: For `O=C(NCC1CC1)c1cc(N2CCOCC2)nc(N(CCc2ccccc2)Cc2ccccc2)n1` [Example 65, 2-(benzyl(phenethyl)amino)-N-(cyclopropylmethyl)-6-morpholinopyrimidine-4-carboxamide], which IC50 is on record?
Answer: 1120 nM

Question: For `CN(CCc1ccccc1)c1nc(C(=O)NCC2CC2)cc(N2CCSCC2)n1` [Example 5, N-(cyclopropylmethyl)-2-(methyl(phenethyl)amino)-6-thiomorpholinopyrimidine-4-carboxamide], which IC50 is on record?
Answer: 2630 nM

Question: Which IC50 does the source give for `CN(CCCCc1ccccc1)c1nc(C(=O)NCC2CC2)cc(N2CCOCC2)n1` [Example 60, N-(cyclopropylmethyl)-2-(methyl(4-phenylbutyl)amino)-6-morpholinopyrimidine-4-carboxamide] here?
Answer: 10000 nM

Question: For `CN(CCc1cccc(Oc2ccccc2)c1)c1nc(C(=O)NCC2CC2)cc(N2CCOCC2)n1` [Example 61, N-(cyclopropylmethyl)-2-(methyl(3-phenoxyphenethyl)amino)-6-morpholinopyrimidine-4-carboxamide], which IC50 is on record?
Answer: 3470 nM

Question: For `O=C(NCC1CC1)c1cc(N2CCOCC2)nc(N2CCCCC2Cc2ccccc2)n1` (centres unmarked) [Example 54, 2-(2-benzylpiperidin-1-yl)-N-(cyclopropylmethyl)-6-morpholinopyrimidine-4-carboxamide], which IC50 is on record?
Answer: 741 nM

Question: With `COc1ccccc1CCN(C)c1nc(C(=O)NCC2CC2)cc(N2CCOCC2)n1` [Example 83, N-(cyclopropylmethyl)-2-((2-methoxyphenethyl)(methyl)amino)-6-morpholinopyrimidine-4-carboxamide] as the compound, how does the IC50 read?
Answer: 776 nM

Question: With `CN(CCc1ccc(Cl)cc1)c1nc(C(=O)NCC2CC2)cc(N2CCOCC2)n1` [Example 57, 2-((4-chlorophenethyl)(methyl)amino)-N-(cyclopropylmethyl)-6-morphol inopyrimidine-4-carboxamide] as the compound, how does the IC50 read?
Answer: 6310 nM

Question: How did the IC50 turn out when `CC(C)N(CCc1ccccc1)c1nc(C(=O)NCC2CC2)cc(N2CCOCC2)n1` [Example 50, N-(cyclopropylmethyl)-2-(isopropyl(phenethyl)amino)-6-morpholinopyrimidine-4-carboxamide] was run?
Answer: 282 nM

Question: Which IC50 does the source give for `CCN(CCc1ccccc1)c1nc(C(=O)NCC2CC2)cc(N2CCOCC2)n1` [Example 72, N-(cyclopropylmethyl)-2-(ethyl(phenethyl)amino)-6-morpholinopyrimidine-4-carboxamide] here?
Answer: 646 nM

Question: For `CN(CCc1ccccc1)c1cc(N2CCOCC2)cc(C(=O)NCC2CC2)n1` [Example 79, N-(cyclopropylmethyl)-6-(methyl(phenethyl)amino)-4-morpholinopicolinamide], which IC50 is on record?
Answer: 10500 nM

Question: With `O=C(NCC1CC1)c1cc(N2CCOCC2)nc(N(CCc2ccccc2)CCc2ccccc2)n1` [Example 62, N-(cyclopropylmethyl)-2-(diphenethylamino)-6-morpholinopyrimidine-4-carboxamide] as the compound, how does the IC50 read?
Answer: 525 nM

Question: `CN(CCc1ccccc1)c1nc(C(=O)NCC2CC2)cc(N2CCN(C(=O)c3ccccc3)CC2)n1` [Example 16, 6-(4-benzoylpiperazin-1-yl)-N-(cyclopropylmethyl)-2-(methyl(phenethyl)amino)pyrimidine-4-carboxamide] was tested. Which IC50 did it give?
Answer: 7760 nM

Question: `CN(CCc1ccccc1)c1nc(C(=O)NCC2CC2)cc(N2CCC(N(C)C)C2)n1` (centres unmarked) [Example 33, N-(cyclopropylmethyl)-6-(3-(dimethylamino)pyrrolidin-1-yl)-2-(methyl(phenethyl)amino)pyrimidine-4-carboxamide] was tested. Which IC50 did it give?
Answer: 9550 nM

Question: How did the IC50 turn out when `O=C(NCC1CC1)c1cc(N2CC[C@H](O)C2)nc(N2CCC[C@@H](c3ccccc3)C2)n1` [Example 40, N-(cyclopropylmethyl)-6-((S)-3-hydroxypyrrolidin-1-yl)-2-((S)-3-phenylpiperidin-1-yl)pyrimidine-4-carboxamide] was run?
Answer: 72.4 nM

Question: For `CN(CCc1ccccc1)c1nc(C(=O)NCC2CC2)cc(-n2cccn2)n1` [Example 24, N-(cyclopropylmethyl)-2-(methyl(phenethyl)amino)-6-(1H-pyrazol-1-yl)pyrimidine-4-carboxamide], which IC50 is on record?
Answer: 1200 nM

Question: For `CN(CCCc1ccccc1)c1nc(C(=O)NCC2CC2)cc(N2CCOCC2)n1` [Example 58, N-(cyclopropylmethyl)-2-(methyl(3-phenylpropyl)amino)-6-morpholinopyrimidine-4-carboxamide], which IC50 is on record?
Answer: 3160 nM

Question: With `CN(CCO)c1cc(C(=O)NCC2CC2)nc(N(C)CCc2ccccc2)n1` [Example 30, N-(cyclopropylmethyl)-6-((2-hydroxyethyl)(methyl)amino)-2-(methyl(phenethyl)amino)pyrimidine-4-carboxamide] as the compound, how does the IC50 read?
Answer: 1000 nM

Question: With `CN(CCc1ccccc1)c1nc(C(=O)NC2CC2)cc(N2CCOCC2)n1` [Example 13, N-cyclopropyl-2-(methyl (phenethyl)amino)-6-morpholinopyrimidine-4-carboxamide] as the compound, how does the IC50 read?
Answer: 3720 nM

Question: `CN(CCc1ccccc1)c1nc(C(=O)NCC2CC2)cc(N2CCCC2)n1` [Example 17, N-(cyclopropylmethyl)-2-(methyl(phenethyl)amino)-6-(pyrrolidin-1-yl)pyrimidine-4-carboxamide] was tested. Which IC50 did it give?
Answer: 224 nM

Question: How did the IC50 turn out when `CN1CCN(c2cc(C(=O)NCC3CC3)nc(N(C)CCc3ccccc3)n2)CC1` [Example 7, N-(cyclopropylmethyl)-2-(methyl(phenethyl)amino)-6-(4-methylpiperazin-1-yl)pyrimidine-4-carboxamide] was run?
Answer: 1580 nM

Question: Which IC50 does the source give for `O=C(NCC1CC1)c1cc(N2CC[C@H](O)C2)nc(N2CCC[C@H](c3ccccc3)C2)n1` [Example 41, N-(cyclopropylmethyl)-6-((S)-3-hydroxypyrrolidin-1-yl)-2-((R)-3-phenylpiperidin-1-yl)pyrimidine-4-carboxamide] here?
Answer: 251 nM

Question: Which IC50 does the source give for `CN(CCc1ccccc1)c1nc(C(=O)NCC2CC2)cc(N2CC3(COC3)C2)n1` [Example 26, N-(cyclopropylmethyl)-2-(methyl(phenethyl)amino)-6-(2-oxa-6-azaspiro[3.3]heptan-6-yl)pyrimidine-4-carboxamide] here?
Answer: 1660 nM

Question: For `CNc1cc(C(=O)NCC2CC2)nc(N(C)CCc2ccccc2)n1` [Example 21, N-(cyclopropylmethyl)-2-(methyl(phenethyl)amino)-6-(methylamino)pyrimidine-4-carboxamide], which IC50 is on record?
Answer: 851 nM

Question: Which IC50 does the source give for `CCNC(=O)c1cc(N2CCOCC2)nc(N(C)CCc2ccccc2)n1` [Example 4, N-ethyl-2-(methyl (phenethyl)amino)-6-morpholinopyrimidine-4-carboxamide] here?
Answer: 4570 nM

Question: For `C#CCNC(=O)c1cc(N2CC[C@H](O)C2)nc(N2CCN(C(=O)c3ccc(C4(C(F)(F)F)N=N4)cc3)CC2)n1` [Example 45, (S)-6-(3-hydroxypyrrolidin-1-yl)-N-(prop-2-yn-1-yl)-2-(4-(4-(3-(trifluoromethyl)-3H-diazirin-3-yl)benzoyl)piperazin-1-yl)pyrimidine-4-carboxamide], which IC50 is on record?
Answer: 617 nM

Question: Which IC50 does the source give for `C#CCNC(=O)c1cc(N2CC[C@H](O)C2)nc(N2CCN(Cc3ccc(C4(C(F)(F)F)N=N4)cc3)CC2)n1` [Example 44, (S)-6-(3-hydroxypyrrolidin-1-yl)-N-(prop-2-yn-1-yl)-2-(4-(4-(3-(trifluoromethyl)-3H-diazirin-3-yl)benzyl)piperazin-1-yl)pyrimidine-4-carboxamide] here?
Answer: 479 nM
